Assay results as given in patent publication US8420646B2, “Tricyclic tetrahydroquinoline antibacterial agents” (PAH P&U LLC, priority 2002, dated 2013).
Where “and” joins values, the source holds several entries; their conditions need not be identical. Equal values may be shown once.

Target: T1, E. coli DNA gyrase (Escherichia coli, UniProt P0AES4+P0AES6)
T1 construct: made in house; host or cells: strains overexpressing each subunit individually
Experiment: In Vitro DNA Gyrase Assay (supercoiling of relaxed pBR322, EtBr-stained agarose gel)
Type: biochemical
Conditions: Gyrase IC50 (μM), E. coli DNA gyrase holoenzyme A2B2; substrate relaxed pBR322; relaxed vs. supercoiled DNA on 0.8% agarose gel
From the text: DNA gyrase is a bacterial topoisomerase that introduces negative supercoils into DNA. The DNA gyrase assay measures the degree of enzymatic activity by quantitating relative amounts of relaxed vs. supercoiled DNA on an EtBr-stained 0.8% agarose gel. The substrate is relaxed pBR322. The enzyme is E. coli DNA gyrase which is purified from strains overexpressing each of the subunits individually (there are two: A and B and the holoenzyme consists of the heterodimer A2B2). See for example, Hallett et al. Cloning of the DNA gyrase genes under tac promoter control: overproduction of the gyrase A and B proteins. Gene 93: 139-142 (1990); Simon et al. Biochemical complementation studies in vitro of gyrase subunits from different species. FEBS Lett 373:88-92 (1995); and O'Dea et al. Mutations in the B subunit of Escherichia coli DNA gyrase that affect ATP-dependent reactions. J. Biol Chem 1996 271:9723-9 (1996).
In the below chart, racemic mixtures are denoted with (±)- and enantiomerically enriched samples are denoted by (−)- or (+)-.

T1 sequence (P0AES4 whole entry, one chain of several): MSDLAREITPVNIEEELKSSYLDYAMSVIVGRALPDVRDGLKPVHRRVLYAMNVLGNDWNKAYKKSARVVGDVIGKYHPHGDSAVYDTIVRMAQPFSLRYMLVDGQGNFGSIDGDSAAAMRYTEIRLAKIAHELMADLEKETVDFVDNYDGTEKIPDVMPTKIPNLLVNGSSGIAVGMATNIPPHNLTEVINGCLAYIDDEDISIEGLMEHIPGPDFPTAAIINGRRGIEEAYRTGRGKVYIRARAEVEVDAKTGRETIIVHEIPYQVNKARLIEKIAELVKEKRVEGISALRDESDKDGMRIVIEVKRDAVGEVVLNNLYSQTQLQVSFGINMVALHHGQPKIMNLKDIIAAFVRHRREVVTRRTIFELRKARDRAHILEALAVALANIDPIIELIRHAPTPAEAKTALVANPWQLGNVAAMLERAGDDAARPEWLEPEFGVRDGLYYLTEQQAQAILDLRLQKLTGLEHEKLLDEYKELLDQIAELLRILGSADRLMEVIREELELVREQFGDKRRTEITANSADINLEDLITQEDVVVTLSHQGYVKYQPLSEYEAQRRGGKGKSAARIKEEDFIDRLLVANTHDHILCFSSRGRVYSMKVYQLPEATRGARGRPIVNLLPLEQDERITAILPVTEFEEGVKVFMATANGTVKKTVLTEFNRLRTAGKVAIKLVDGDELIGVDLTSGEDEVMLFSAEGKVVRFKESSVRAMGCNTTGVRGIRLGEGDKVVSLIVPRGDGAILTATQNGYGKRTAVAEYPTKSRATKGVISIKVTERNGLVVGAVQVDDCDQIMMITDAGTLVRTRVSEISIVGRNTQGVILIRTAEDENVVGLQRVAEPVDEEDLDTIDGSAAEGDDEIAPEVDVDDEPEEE

## C[C@@H]1CN2c3ccc(F)cc3CC3(C(=O)NC(=O)NC3=O)[C@H]2[C@H](C)O1 (racemic) [Example 4, 8-Fluoro-1,2,4,4a-tetrahydro-cis-2,4-dimethylspiro[[1,4]oxazino[4,3-a]quinoline-5(6H), 5′(2′H)-pyrimidine]-2′,4′,6′(1′H,3′H)-trione]
  IC50: 70.2 µM

## C[C@@H]1CN2c3ccc([N+](=O)[O-])cc3CC3(C(=O)NC(=O)NC3=O)[C@H]2[C@H](C)O1 (stereo in doubt) [Example 1]
  IC50: 11.8 µM and 6.1 µM

## C[C@@H]1CN2c3ccc(C#N)cc3CC3(C(=O)NC(=O)NC3=O)[C@H]2[C@H](C)O1 [Example 6, 1,1′,2,3′4,4′,4a, 6′-Octrahydro-2,4′,6′-trioxospiro[[1,4]oxazino[4,3-a]quinoline-5(6H), 5′(2′H)-pyrimidine]-8-carbonitrile]
  IC50: 13.8 µM

## C[C@@H]1CN2c3ccccc3CC3(C(=O)NC(=O)NC3=O)[C@H]2[C@H](C)O1 (racemic) [Example 2, 1,2,4,4a-Tetrahydro-cis-2,4-dimethylspiro[[1,4]oxazino[4,3-a]quinoline-5(6H), 5′(2′H)-pyrimidine]-2′,4′,6′(1′H,3′H)-trione]
  IC50: 45.6 µM

## COC(=O)c1ccc2c(c1)CC1(C(=O)NC(=O)NC1=O)[C@H]1[C@H](C)O[C@H](C)CN21 (relative stereo) [Example 43, rel-Methyl (2R,4S,4aS)1,1′-2,3′,4,4a,6′-Octahydro-2,4-dimethyl-2′,4′,6′-trioxospiro[[1,4]oxazino[4,3-a]quinoline-5(6H),5′(2′H)-pyrimidine]-8-carboxylate]
  IC50: 24 µM

## CC(=O)c1ccc2c(c1)CC1(C(=O)NC(=O)NC1=O)[C@H]1[C@H](C)O[C@H](C)CN21 (racemic) [Example 18, 8-Acetyl-1,2,4,4a-tetrahydro-2,4-dimethylspiro[[1,4]oxazino[4,3-a]quinoline-5(6H),5′(2H)-pyrimidine)-2′,4′,6′(1′H,3′H)-trione]
  IC50: 8.4 µM

## C[C@@H]1CN2c3ccc([N+](=O)[O-])cc3CC3(C(=O)NC(=O)NC3=O)[C@@H]2[C@@H](C)O1 (racemic) [Example 1]
  IC50: 19 µM

## C[C@@H]1OCCN2c3ccc([N+](=O)[O-])cc3CC3(C(=O)NC(=O)NC3=O)[C@@H]12 (stereo in doubt) [Example 25]
  IC50: 18.2 µM and 32 µM
